Test results from US11624093B2, “Tumor suppressor and oncogene biomarkers predictive of anti-immune checkpoint inhibitor response” (Dana-Farber Cancer Institute, Inc., priority 2014, dated 2023).

Assays:
[1] = tested on: lung tumors of Kras^G12D mice; assay: MRI lung tumor volume quantification in Kras^G12D mice treated with the arginase inhibitor; assay type: in vivo, mouse; details: 30 mg/kg once daily gavage, 1 week
Description: (§1) All EGFR transgenic mice carrying tetracycline inducible human EGFR cDNA were previously generated, crossed with CC10-RTTA mice expressing reverse tetracycline activator from lung Clara cell CC10 promoter, and maintained in mixed background. Double positive progeny were fed with doxycycline diet starting at 5-6 weeks of age for the induction of tumors and maintained on doxycyline throughout the study. EGFR and KrasG12D mice were maintained in mixed (C57Bl/6, FVB, and S129) background and given adeno virus expressing Cre recombinase (5×10^6 titer) intranasally at 5 weeks of age for induction of recombination and tumor formation. All breedings and in vivo experiments were performed with the approval of the DFC1 Animal Care and Use Committee.
(§2) The arginase inhibitor (R)-2-Amino-6-borono-2-(2-(piperidin-1-yl)ethyl)hexanoic acid, also known as compound HY-15775/compound 9, was obtained from MedChem Express and is well known in the art (see, for example, Van Zandt et al. (2013) J. Med. Chem. 56:2568-2580). The compound was administered to mice at 30 mg/kg in phosphate-buffered saline (PBS) via oral gavage once daily.
Animals were anesthetized with 1.5-2% isoflurane (IsoFlo; Abbott) in 100% oxygen. […] Tumor volume quantifications were performed using 3D-Slicer software as described in Weaver et al. (2012) Cancer Res. 72:921-933.

[2] = tested on: Kras mutant mice, total lung and tumor infiltrating immune cells; assay: Immune cell analysis of lungs of Kras mutant mice treated with the arginase inhibitor; assay type: in vivo, mouse; details: 30 mg/kg once daily gavage, 1 week
Description: as §1, §2
Total lung cell and tumor infiltrating immune cell characterization was performed as described in Akbay et al. (2013) Cancer Discov. 3:1355-1363.

With `N[C@](CCCCB(O)O)(CCN1CCCCC1)C(=O)O` [compound 9/HY-15775, (R)-2-Amino-6-borono-2-(2-(piperidin-1-yl)ethyl)hexanoic acid] the “lung tumor volumes (change compared to baseline, MRI)” value [1] was “decreases”, the “CD8 T cells in the total T cell population” value [2] was “increase” and the “CD11c and CD11b myeloid populations” value [2] was “no change”. For the same compound, the “ratio of CD4 T cells in the total T cell population” value [2] was “decrease”, the “ratio of CD8 to FoxP3 cells (cytotoxic T cells to regulatory T cells)” value [2] was “increase” and the “total T cell counts” value [2] was “increase”.
